# Patent USRE37979E1, “Pyrimidine derivatives and anti-viral agent containing the same as active ingredient thereof” (priority 1989, dated 2003)
# Test system: HIV
# Assay: Inhibitory activity for HIV infection (protection of HIV-infected MT-4 cells from death)
# Assay type: cell-based
# Settings: 5 days incubation at 37° C., concentration preventing the death of 50% of the MT-4 cells
# Protocol: Inhibitory activity for HIV infection
# (§1) In RPMI 1640 DM culture medium containing 20 mM of Hepes buffer solution, 10% fetal bovine serum and 20 μg/ml of gentamycin, 3×10^4 MT-4 cells (human T cell clone which is destroyed by the infection of HIV) were infected with HIV in an amount of 100 times as large as expected to cause 50% infection of the cells. Immediately thereafter, a predetermined amount of sample was added to the culture medium using 50 mg/ml sample solutions in dimethyl sulfoxide and the cells were cultured at 37° C.
# (§2) After 5 days of incubation, the number of existing cells was counted to determine the concentration of the compound for preventing the death of 50% of the MT-4 cells. Separately, MT-4 cells were cultured in the same way as above except that they were not infected with HIV to determine the concentration of the compound at which 50% of the MT-4 cells were destroyed.
row,Compound,IC50 [nM]
1,1-(4-hydroxybutyl) -6-phenylthiothymine [Compound 31],13000
2,1-(methylthiomethyl)-6-phenylthiothymine [Compound 32],1200
3,1-[(2-acetoxyethoxy)methyl]-6-phenylthiothymine [Compound 2],6700
4,1-[(2-phenylcarbamoyloxyethoxy) methyl]-6-m-tolylthiothymine [Compound 16],21000
5,1-butyl-5-ethyl-6-phenylthiouracil [Compound 252],16
6,1-ethoxymethyl-5-ethyl-6-phenylthiouracil [Compound 247],16
7,"COCn1c(Sc2ccccc2)c(C)c(=O)[nH]c1=O [Compound 22, 1-(methoxymethyl)-6-phenylthiothymine]",2100

# Same assay, conditions: Human immunodeficiency virus 1, MT4, 120 h, 5 days incubation at 37° C., concentration preventing the death of 50% of the MT-4 cells
row,Compound,IC50 [nM]
1,"CC(=O)OCCOCn1c(Sc2ccccc2)c(C)c(=O)[nH]c1=S [Compound 1, 1-[(2-acetoxyethoxy)methyl]-6-phenylthio-2-thiothymine]",2800
2,"CCOCn1c(Sc2ccccc2)c(CC)c(=O)[nH]c1=S [Compound 358, 1-ethoxymethyl-5-ethyl-6-phenylthio-2-thiouracil]",26
3,"CCOCn1c(Cc2ccccc2)c(CC)c(=O)[nH]c1=O [Compound 472, 6-benzyl-1-ethoxymethyl-5-ethyluracil]",41

# Test system: MT-4 cells
# Assay: Cytotoxicity to MT-4 cells not infected with HIV
# Assay type: cell-based
# Settings: 5 days incubation, concentration at which 50% of the MT-4 cells were destroyed
# Protocol: as §1, §2
row,Compound,50% cytotoxic concentration to MT-4 cells [µM]
1,1-(4-hydroxybutyl) -6-phenylthiothymine [Compound 31],249
